The values below are quoted from earlier work in patent US11464736B2, “Thermally gelling drug formulations” (UNM Rainforest Innovations, priority 2019, dated 2022).

Series [1] deals with CYP3A4 metabolizing enzyme (Homo sapiens, UniProt P08684).
Assay in series [2]: not given
This is another data set of the same source.

Chain of CYP3A4 metabolizing enzyme (P08684 whole entry): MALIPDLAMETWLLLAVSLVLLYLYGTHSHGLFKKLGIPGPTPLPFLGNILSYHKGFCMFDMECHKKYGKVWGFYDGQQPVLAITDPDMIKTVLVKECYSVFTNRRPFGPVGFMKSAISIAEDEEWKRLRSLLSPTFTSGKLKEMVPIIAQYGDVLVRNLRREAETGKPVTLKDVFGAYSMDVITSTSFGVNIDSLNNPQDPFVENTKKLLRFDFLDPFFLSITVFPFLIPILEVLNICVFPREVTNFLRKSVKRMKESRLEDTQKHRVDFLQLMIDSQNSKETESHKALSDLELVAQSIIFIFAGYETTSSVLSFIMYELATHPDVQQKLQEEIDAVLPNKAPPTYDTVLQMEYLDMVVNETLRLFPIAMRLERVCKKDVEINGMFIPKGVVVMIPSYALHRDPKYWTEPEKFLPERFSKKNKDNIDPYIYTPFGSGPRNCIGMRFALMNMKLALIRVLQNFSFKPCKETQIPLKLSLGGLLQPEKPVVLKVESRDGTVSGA

As to hydroxy-itraconazole, the “inhibition of CYP3A4” value in series [1] was “competitive inhibitors”.

As for `O=c1[nH]ncn1-c1ccc(N2CCN(c3ccc(OCC4COC(Cn5cncn5)(c5ccc(Cl)cc5Cl)O4)cc3)CC2)cc1` (centres unmarked) [N-desalkyl-itraconazole], in series [1], the “inhibition of CYP3A4” value is “competitive inhibitors”.

`CC(=O)C(C)n1ncn(-c2ccc(N3CCN(c4ccc(OC[C@H]5CO[C@](Cn6cncn6)(c6ccc(Cl)cc6Cl)O5)cc4)CC3)cc2)c1=O` (mixture of isomers) [keto-itraconazole]: the “inhibition of CYP3A4” value in series [1] is on record as “competitive inhibitors”.

Regarding `CCC(C)n1ncn(-c2ccc(N3CCN(c4ccc(OCC5COC(Cn6cncn6)(c6ccc(Cl)cc6Cl)O5)cc4)CC3)cc2)c1=O` (centres unmarked) [ITZ, Itraconazole], the “increase of oral bioavailability when taken with food” value was 33-37%. Moreover, in series [2], the “log P” value is reported as 5.7-6.2.
